Experimental data: US9505709B2, “Compositions and methods relating to ionic salts of peptides” (Thetis Pharmaceuticals LLC, priority 2014, dated 2016)

Columns and labels:
Balb/C mice = assay: Ocular irritation after topical dosing to the cornea (hyperemia, squinting, discharge, lid swelling); format: in vivo; details: for Hyperemia: 3 μL drop in each eye four times daily for 3 days
Experimental: In an embodiment where the ophthalmic formulation is an aqueous formulation, it has been determined in mice that certain formulations can be administered to the surface of the eye without producing irritation that would make them unsuitable for such application. Irritation parameters of TP-211-1, TP-212-1, TP-311-1 and TP-312-1 related to hyperemia, squinting, and discharge were determined in Balb/C mice. Mice were dosed topically to the cornea using a calibrated micropipette, with a 3 μL drop of treatment in each eye four times daily for 3 consecutive days at various concentrations.
TP-211-1 is Lysyl-lysine EPA. TP-212-1 is Lysyl-lysine bis-EPA. TP-311-1 is Lysyl-lysine DHA. TP-312-1 is Lysyl-lysine bis-DHA. The study drugs were prepared using phosphate buffered saline (PBS) to reach target concentrations ranging from 0.1% to 1.0%.
The animals were monitored for scratching at the eye or any other abnormal behavior post-dose. Ocular exams were conducted on Days 1 and 3 with use of a Micron III camera system to take high resolution videos of the right eye of each animal Clinical signs including but not limited to hyperemia, discharge, lid swelling, and squinting were evaluated by trained personnel who was masked as to group assignment. Each clinical sign was graded on a scale of 0-4, with the exception of lid swelling which was graded on a scale of 0-2. Scores were averaged and are expressed as the mean±SEM for each group. Statistical significance was assessed between the treatment arms and the vehicle group. Any significance is noted by asterisks (*=p<0.05, **=p<0.01, ***=p<0.001).

[1] = Oral pharmacokinetics (oral gavage), plasma free EPA or free DHA; format: in vivo, Sprague-Dawley rats; details: rat
Experimental: Experiments via Oral Gavage: Oral pharmacokinetic parameters of TP-212 (Lysyl-Lysine Bis-EPA), TP-312 (Lysyl-Lysine Bis-DHA), EPA-EE, EPA FFA and DHA FFA were determined in Sprague-Dawley rats. EPA-EE is 97% pure ethyl ester form of eicosapentaenoic acid. It is the principal polyunsaturated fatty acid in Vascepa, an Omega-3 compound approved in the U.S. for the treatment of severe hypertriglyceridemia. EPA FFA is 97% pure free fatty acid form of eicosapentaenoic acid and DHA FFA is 98% pure free fatty acid DHA. EPA FFA and DHA FFA are the two principal poly-unsaturated fatty acids in Epanova, an Omega-3 compound approved in the U.S. for the treatment of severe hypertriglyceridemia. The subject drugs were administered by oral gavage as an aqueous solution in de-ionized water to 6 Sprague-Dawley rats per group (3 males and 3 females). Rats were dosed at 40 mg/kg. Blood samples were obtained from each rat by jugular vein catheter. Samples were collected at pre-dose and at 0.25, 0.5, 1, 2, 4, 8, 12 and 18 hours post dose. Blood samples were centrifuged to separate red blood cells and the resulting plasma samples were analyzed for free EPA or free DHA. Free EPA or […] extracted from rat plasma with hexane at acidic condition without hydrolysis. Detection was by MS-MS monitoring of negative ion for EPA or DHA. Calculated pharmacokinetic values are mean values from 6 rats for each study drug.
(§1) For all figures and tables, the data are adjusted as follows for comparative purposes. First, the actual plasma levels are baseline adjusted. Thus, for each study arm, the pre-dose level (time=0) is subtracted from the actual plasma levels at each time point, with negative values adjusted to zero. Second, these baseline adjusted values are further adjusted to be molar dose equivalent on a comparative basis among the study arms with respect to EPA or DHA payload (i.e., as if equal amounts of free fatty acid EPA or DHA are administered in each study arm).

[2] = Intravenous injection pharmacokinetics, plasma free EPA or free DHA; format: in vivo, Sprague-Dawley rats; details: rat
Experimental: Experiments via Intravenous Injection: TP-212 and TP-312 were administered by intravenous injection (20 mg/kg) to Sprague-Dawley rats (n=6/group—3 male and 3 female), and plasma was obtained from serial blood samples taken from each animal at scheduled times ([…]). Blood samples were centrifuged to separate red blood cells and the resulting plasma samples were analyzed for free EPA or free DHA. Free EPA or free DHA was extracted from rat plasma with hexane at acidic condition without hydrolysis. Detection was by MS-MS monitoring of negative ion for EPA or DHA. Calculated pharmacokinetic values are mean values from 6 rats for each study drug.
as §1

[3] = Stability analysis by 1H NMR of samples exposed to air and light; details: ambient temperature
Experimental: Stability analysis was performed using 1H NMR (400 MHz) with acetic acid-d4 at various time point (typically days 1, 14, 30 and 60) using samples exposed to air and light at ambient temperature (clear vials with no caps).

[4] = oral gavage 40 mg/kg, molar dose equivalent, baseline adjusted
[5] = intravenous injection 20 mg/kg, molar dose equivalent, baseline adjusted

Structure (SMILES): CC/C=C\C/C=C\C/C=C\C/C=C\C/C=C\C/C=C\CCC(=O)O.CC/C=C\C/C=C\C/C=C\C/C=C\C/C=C\C/C=C\CCC(=O)O.NCCCC[C@H](NC(=O)[C@@H](N)CCCCN)C(=O)O [Compound 4, (L,L) Lysyl-lysine bis DHA]
- Hyperemia (Balb/C mice; 0.1% concentration in PBS): did not cause any significant increase in hyperemia after the first dose
- Hyperemia (Balb/C mice; 0.5% concentration in PBS): some initial hyperemia after the first dose
- Hyperemia (Balb/C mice; 1.0% concentration in PBS): some initial hyperemia after the first dose
- Squinting (Balb/C mice; all concentrations tested, topical to cornea): none of the concentrations caused squinting throughout the study
- Hyperemia at last dose / final evaluation (Balb/C mice; concentrations that showed an initial increase or all tested, last dose / final evaluation (Day 3)): remained at baseline levels of hyperemia by the last dose of the day
- Concentration at which not irritating / well tolerated (Balb/C mice; topical to cornea four times daily for 3 days): less than 1.0%
- Tmax (free DHA) ([1]; oral gavage 40 mg/kg): 2 h
- Plasma level of free DHA ([1]; oral gavage 40 mg/kg, 0 h (pre-dose), molar dose equivalent, baseline adjusted): 0 ng/mL
- Plasma level of free DHA ([1]; oral gavage 40 mg/kg, 0.25 h (15 min), molar dose equivalent, baseline adjusted): 0 ng/mL
- Plasma level of free DHA ([1]; oral gavage 40 mg/kg, 0.5 h (30 min), molar dose equivalent, baseline adjusted): 4600 ng/mL
- Plasma level of free DHA ([1]; oral gavage 40 mg/kg, 1 h (60 min), molar dose equivalent, baseline adjusted): 6300 ng/mL
- Plasma level of free DHA ([1]; oral gavage 40 mg/kg, 2 h (120 min), molar dose equivalent, baseline adjusted): 10400 ng/mL
- Plasma level of free DHA ([1]; oral gavage 40 mg/kg, 4 h (240 min), molar dose equivalent, baseline adjusted): 5600 ng/mL
- Plasma level of free DHA ([1]; oral gavage 40 mg/kg, 8 h, molar dose equivalent, baseline adjusted): 1400 ng/mL
- Plasma level of free DHA ([1]; oral gavage 40 mg/kg, 12 h, molar dose equivalent, baseline adjusted): 0 ng/mL
- Plasma level of free DHA ([1]; oral gavage 40 mg/kg, 18 h, molar dose equivalent, baseline adjusted): 0 ng/mL
- AUC 0-1 hrs (free DHA) [1, 4]: 3300 ng·h/mL
- AUC 0-4 hrs (free DHA) [1, 4]: 27600 ng·h/mL
- AUC 0-18 hrs (free DHA) [1, 4]: 44400 ng·h/mL
- Cmax (free DHA) [1, 4]: 10400 ng/mL
- AUC over 18 hours (free DHA), times greater than DHA-FFA ([1]; oral gavage): approximately 1.2 times
- Cmax (free DHA), times greater than DHA-FFA ([1]; oral gavage): approximately 3.0 times
- Tmax (free DHA) ([2]; intravenous injection 20 mg/kg): 1 min
- Plasma level of free DHA ([2]; intravenous injection 20 mg/kg, 1 min, molar dose equivalent, baseline adjusted): 66400 ng/mL
- Plasma level of free DHA ([2]; intravenous injection 20 mg/kg, 5 min, molar dose equivalent, baseline adjusted): 15100 ng/mL
- Plasma level of free DHA ([2]; intravenous injection 20 mg/kg, 10 min, molar dose equivalent, baseline adjusted): 16600 ng/mL
- Plasma level of free DHA ([2]; intravenous injection 20 mg/kg, 15 min, molar dose equivalent, baseline adjusted): 17500 ng/mL
- Plasma level of free DHA ([2]; intravenous injection 20 mg/kg, 30 min, molar dose equivalent, baseline adjusted): 16400 ng/mL
- Plasma level of free DHA ([2]; intravenous injection 20 mg/kg, 60 min, molar dose equivalent, baseline adjusted): 12900 ng/mL
- Plasma level of free DHA ([2]; intravenous injection 20 mg/kg, 120 min, molar dose equivalent, baseline adjusted): 8500 ng/mL
- Plasma level of free DHA ([2]; intravenous injection 20 mg/kg, 240 min, molar dose equivalent, baseline adjusted): 7800 ng/mL
- Plasma level of free DHA ([2]; intravenous injection 20 mg/kg, first line (time printed as dash, pre-dose), molar dose equivalent, baseline adjusted): 0 ng/mL
- AUC 0-1 hrs (free DHA) [2, 5]: 16300 ng·h/mL
- AUC 0-4 hrs (free DHA) [2, 5]: 43300 ng·h/mL
- Cmax (free DHA) [2, 5]: 66400 ng/mL
- AUC over 1 hour (free DHA), times greater than DHApo ([2]; intravenous vs oral gavage): ~14.7 times
- AUC over 1 hour (free DHA), times greater than TP-312po ([2]; intravenous vs oral gavage): approximately 4.9 times
- AUC over 4 hours (free DHA), times greater than DHApo ([2]; intravenous vs oral gavage): ~5.0 times
- AUC over 4 hours (free DHA), times greater than TP-312po ([2]; intravenous vs oral gavage): approximately 1.6 times
- Cmax (free DHA), times greater than DHApo ([2]; intravenous vs oral gavage): ~19.3 times
- Cmax (free DHA), times greater than TP-312po ([2]; intravenous vs oral gavage): approximately 6.4 times
- Stability by NMR (amount of sample remaining relative to original sample) ([3]; Day 3): 1 (1 = >95%)
- Stability by NMR (amount of sample remaining relative to original sample) ([3]; Day 14): 1 (1 = >95%)
- Stability by NMR (amount of sample remaining relative to original sample) ([3]; Day 30): 1 (1 = >95%)
- Stability by NMR (amount of sample remaining relative to original sample) ([3]; Day 60): 1 (1 = >95%)
